According to PMC10955247, “In vivo screening for toxicity-modulating drug interactions identifies antagonism that protects against ototoxicity in zebrafish” (Frontiers in Pharmacology, 2024):
Structures can show the parent of a compound that is named as a salt.

Experiments:
[1] = system: zebrafish lateral line hair cells; experiment: PEPITA quantification of ototoxicity in YO-PRO-1-stained AB zebrafish larvae; type: in vivo
Description: Therefore, at 5 dpf, larvae were transferred to 12-well plates (5–11 fish per well, 1 well per condition) containing the relevant compound or combination diluted with ICS water, or ICS water alone or high-dose neomycin to serve as controls. Unless otherwise noted, fish were exposed to drug (either an individual compound or a pairwise combination of compounds) for 4 h, as a balance between longer exposure times for accommodating varied kill kinetics and shorter exposure times for technical tractability. Treatments with multiple drugs involved co-administering a prepared solution consisting of both drugs with defined concentrations in ICS water.
Fluorescence microscopy was performed using a Keyence BZ-X800 microscope imaging system, which enables high-throughput semi-automated imaging of 96-well plates.
(§1) Each image was masked using automated object detection to include only the fish itself. Manual masks were created on occasion for avoidance of fluorescent contamination, adjusted segmenting for myo6b::gfp fish to remove inner ear HC fluorescence, or exclusion of dead or damaged fish. Each fish was then adjusted for autofluorescence using the fluorophore-free red channel and scored based on the sum of green fluorescence pixel values surrounding 10 of the top 15 brightest pixels in the masked image (Figures 1B–E). These scores were standardized by comparison with the median score of wells containing untreated fish and a score representing no remaining HC fluorescence, both derived for each plate.
Wells where the expected response ( Ra×Rb ) and observed response ( Rab ) were both less than 10% or greater than 90% were excluded from aggregation to reduce the effect of our choice of dose range. The remaining wells were summarized by averaging into a composite interaction score for the combination; we refer to this metric as the “windowed excess over Bliss” (wEOB).

[2] = system: zebrafish lateral line hair cells; experiment: Ototoxic dose response in myo6b::gfp zebrafish larvae; type: in vivo, Danio rerio; conditions: myo6b::gfp fish; read-out: dose required to elicit 50% of maximal HC damage (EC50)
Description: For drug dose response testing, zebrafish of the wildtype genetic background AB (Table 1) and fish that were transgenic for GFP under the myo6b HC-specific promoter (Tg (myo6b:EGFP), Table 1) were raised as described previously ([Westerfield, 2007]; [Farr et al., 2020]). […]
as §1, with “The resulting images were analyzed for dose-response and drug interaction characteristics with” for “Each image was masked using automated object detection to include only”, “PEPITA software package, which can be found on GitHub (https://github.com/ma-lab-cgidr/PEPITA-tools). […]” for “fish itself.”, “plate. […]” for “plate.”
To further explore the mechanism of macrolide and aminoglycoside antagonism, we fluorescently labeled the aminoglycosides neomycin and gentamicin with Texas Red-X succinimidyl ester to track HC uptake with and without macrolide treatment (Table 1). […] Drug-induced injury was quantified by loss of fluorescence in HCs. […]

[3] = system: zebrafish lateral line hair cells; experiment: Lateral line hair cell intracellular calcium imaging and cell death; type: in vivo
Excerpt: For calcium testing, zebrafish expressing HC-specific GCaMP targeted to the inner mitochondrial matrix were crossed with fish expressing a HC specific calcium indicator to create double-transgenic embryos (Tg (myo6b:mitoGCaMP3;myo6b:cytoRGECO), Table 1) with both green fluorescent mitochondrial calcium and red fluorescent cytosolic calcium indicators, then raised as described previously ([McQuate et al., 2023]). Zebrafish embryos were collected from 2-h spawning periods and raised in Petri dishes in embryo medium (EM: 14.97 mM NaCl, 500 μM KCl, 42 µM Na2HPO4, 150 µM KH2PO4, 1 mM CaCl2 dehydrate, 1 mM MgSO4, 0.714 mM NaHCO3, pH 7.2) at a density of 60 larvae per […] dish, in a dark 28.5°C incubator until 5 dpf. Larvae were screened for indicator expression at 4 dpf.
Calcium imaging was performed using an inverted Marianas spinning disk confocal system (Intelligent Imaging Innovations, 3i) with an Evolve 10 MHz EMCCD camera (Photometrics) and a Zeiss C-Apochromat 63x/1.2 numerical aperture water objective. Larvae were 5-6 dpf at the time of imaging. Larvae were first anesthetized in embryo media containing 800 µM tricaine, then stabilized on their sides under a harp, so that posterior neuromasts were exposed to the surrounding media. Imaging was performed at ambient temperature, approximately 25°C. GCaMP fluorescence was acquired with a 488 nm laser and 535/30 emission filter, with an exposure time of 100 ms, and RGECO fluorescence was acquired with a 561 nm laser and 617/73 emission filter and exposure time of 200 ms. Images were taken every 2 minutes as z-stacks through neuromasts in 2 µm steps. Neomycin and azithromycin were dissolved as a 4X stock in EM (described in Section 2.1: Zebrafish Husbandry), then added to the bath to achieve final working concentration after a 10-min baseline. Imaging of neuromasts continued for 50 min. Images were analyzed in ImageJ. Mean fluorescence intensity was measured for ROIs of individual randomly selected HCs (2–3 HCs per NM, see example ROI in Figure 4). For each HC, values were normalized to the average of baseline using Microsoft Excel.

NC[C@@H]1O[C@H](O[C@H]2[C@@H](O)[C@H](O[C@@H]3[C@@H](O)[C@H](N)C[C@H](N)[C@H]3O[C@H]3O[C@H](CN)[C@@H](O)[C@H](O)[C@H]3N)O[C@@H]2CO)[C@H](N)[C@@H](O)[C@@H]1O [Neomycin, Neomycin sulfate hydrate]
RFU (residual HC fluorescence) ([1]; AZM 0 μM, NEO 6.4 μM, 4 h): 10%
RFU (residual HC fluorescence) ([1]; AZM 96 μM + NEO 6.4 μM, 4 h): 88%
windowed excess over Bliss (wEOB) ([1]; AZM + NEO checkerboard, negative = antagonism): −0.36
dose needed to elicit 75% maximal HC damage (EC75) ([1]; NEO alone, 4 h): 3.3 µM
ototoxic interaction with AZM ([1]; co-administration with AZM): otoprotective antagonistic interactions
shift toward antagonism in lateral line HC damage as compared to inhibition of the bacterial species on average ([1]; interaction with AZM, zebrafish wEOB vs average of E. coli, M. abscessus, S. aureus): 44 %pt.
EC75 shift ([1]; ototoxin co-administered with azithromycin (AZM) vs administered alone): 13 fold
EC75 shift ([1]; ototoxin co-administered with azithromycin (AZM) vs administered alone, listed as Neomycin (NEO)): 13-fold
EC75 shift ([1]; ototoxin co-administered with erythromycin (ERY) vs administered alone, listed as NEO): 8 fold
EC75 shift ([1]; ototoxin co-administered with erythromycin (ERY) vs administered alone, listed as Neomycin (NEO)): 8-fold
ototoxic interaction with clarithromycin (CLM) ([1]; preliminary experiments): antagonistic interactions
EC50 ([1]; representative experiment, HC damage dose response, read-out: EC50 (PEPITA, relative fluorescence units)): 1.4 µM
EC50 [2]: 20 µM
HC mitochondrial and cytoplasmic calcium response ([3]; NEO 50 µM, AZM 190 µM, mitoGCaMP3, cytoRGECO larvae): induced an increase in mitochondrial
HCs that went on to die, of those analyzed ([3]; NEO alone 50 µM): 66%
cells that went on to die ([3]; drug alone, calcium imaging): 14/21
